Target: T1, NBCe2 (Rattus norvegicus, UniProt Q6RI88)
T1 construct: gene Slc4a5
T1 sequence (Q6RI88 1-1112): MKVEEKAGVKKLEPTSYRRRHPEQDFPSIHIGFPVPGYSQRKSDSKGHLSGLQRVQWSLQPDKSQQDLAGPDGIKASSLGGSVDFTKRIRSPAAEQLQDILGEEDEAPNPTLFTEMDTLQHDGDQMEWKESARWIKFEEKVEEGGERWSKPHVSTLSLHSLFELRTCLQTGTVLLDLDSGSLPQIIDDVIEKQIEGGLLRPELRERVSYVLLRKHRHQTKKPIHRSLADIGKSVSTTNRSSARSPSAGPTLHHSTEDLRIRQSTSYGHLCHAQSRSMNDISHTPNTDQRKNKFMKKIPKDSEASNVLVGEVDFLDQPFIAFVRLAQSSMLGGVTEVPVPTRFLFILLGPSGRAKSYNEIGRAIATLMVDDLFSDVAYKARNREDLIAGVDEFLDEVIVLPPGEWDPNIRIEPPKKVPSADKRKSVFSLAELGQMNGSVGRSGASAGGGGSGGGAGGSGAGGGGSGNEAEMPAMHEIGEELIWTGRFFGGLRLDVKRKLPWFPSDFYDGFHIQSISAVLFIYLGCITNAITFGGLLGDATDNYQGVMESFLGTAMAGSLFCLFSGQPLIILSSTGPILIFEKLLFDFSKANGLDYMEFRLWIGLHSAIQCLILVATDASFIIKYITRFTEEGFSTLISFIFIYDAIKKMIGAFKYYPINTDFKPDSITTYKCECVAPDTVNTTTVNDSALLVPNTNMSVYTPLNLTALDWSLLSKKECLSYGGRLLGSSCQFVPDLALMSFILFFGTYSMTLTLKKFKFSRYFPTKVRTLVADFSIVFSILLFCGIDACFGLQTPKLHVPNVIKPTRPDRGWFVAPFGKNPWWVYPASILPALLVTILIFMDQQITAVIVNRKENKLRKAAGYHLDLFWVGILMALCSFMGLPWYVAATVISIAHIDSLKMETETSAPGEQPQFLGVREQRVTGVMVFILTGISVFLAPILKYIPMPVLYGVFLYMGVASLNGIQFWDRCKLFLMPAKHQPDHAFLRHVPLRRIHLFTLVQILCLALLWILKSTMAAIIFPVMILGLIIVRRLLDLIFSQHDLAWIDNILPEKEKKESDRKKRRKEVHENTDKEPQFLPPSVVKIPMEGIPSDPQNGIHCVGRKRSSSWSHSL
Experiment: two-electrode voltage clamp of rat NBCe2 expressed in Xenopus laevis oocytes
Assay type: cell-based

IC50 [µM] | Compound
10.7 ± 0.9 | Cc1ccc(CN(Cc2ccc(-c3ccccc3S(=O)(=O)NC#N)cc2)C(=O)c2ccccc2Cl)cc1 [S0859]
4.5 ± 1.8 | O=S(=O)(O)c1cc(N=C=S)ccc1/C=C/c1ccc(N=C=S)cc1S(=O)(=O)O [DIDS]

Reference: PMC9422132, “Membrane transporters control cerebrospinal fluid formation independently of conventional osmosis to modulate intracranial pressure” (Fluids and Barriers of the CNS, 2022)
